According to patent publication US20260347319A1, “YAP/TAZ-TEAD ONCOPROTEINS INHIBITORS” (BridGene Biosciences, Inc., priority 2022, published 2026):
Like-named read-outs stand apart in the source and are kept apart here.

What was measured:
Format in all cases: cell-based
NCI-H226 cells [1] = experiment: Cell proliferation and viability assay (CPA) in NCI-H226 cells; details: up to 6 d; for IC50: Homo sapiens, 144 h, read-out: CPA NCI-H226 IC50 Ave
Procedure: Compound potency and efficacy in inhibiting cell proliferation and viability was assessed in multiple cell lines. For example, NCI-H226 cells (ATCC #CRL-5826) were seeded at 2000 cells in 200 μL medium per well of a 96-well plate (Corning #3610) and incubated at 37° C. for 24 hours, then treated with serial diluted compounds for up to 6 d. Viable cells were measured by CellTiter-Glo 2.0 Cell Viability Assay (Promega #G9243), and the luminescence signal was read using an EnSight Multimode plate reader (PerkinElmer, model 9MLDHH34000000, integration time 100 ms) with Kaleido 3.0. software. For data analysis, dose-dependent curves were plotted as “inhibition” (% of DMSO-treated control wells), and were fitted by four-parametric model in GraphPad Prism to obtain IC50 values. […]

H2052 cells = experiment: Cell proliferation and viability assay (CPA) in H2052 cells; details: for IC50: Homo sapiens, NCI-H2052, read-out: CPA H2052 IC50 Ave
Procedure: (§1) Compound potency and efficacy in inhibiting cell proliferation and viability was assessed in multiple cell lines. For example, NCI-H226 cells (ATCC #CRL-5826) were seeded at 2000 cells in 200 μL medium per well of a 96-well plate (Corning #3610) and incubated at 37° C. for 24 hours, then treated with serial diluted compounds for up to 6 d. Viable cells were measured by CellTiter-Glo 2.0 Cell Viability Assay (Promega #G9243), and the luminescence signal was read using an EnSight Multimode plate reader (PerkinElmer, model 9MLDHH34000000, integration time 100 ms) with Kaleido 3.0. software. For data analysis, dose-dependent curves were plotted as “inhibition” (% of DMSO-treated control wells), and were fitted by four-parametric model in GraphPad Prism to obtain IC50 values.
(§2) Alternatively, cells were plated at 2000 cells in 200 μL medium per well of a 96-well plate (Corning #3585) overnight, treated with compound for 7 days, cell density images taken by Incycte S3 live cell analysis instrument (Sartorius) every 24 hours at the same time. Images were analyzed by Incucyte's AI-driven software to get C “% confluence” for every image. Dose-dependent curves were plotted as “% inhibition” (% o of DMSO-treated control wells) and were fitted by four-parametric model in GraphPad Prism to obtain IC50 values.

TEAD1 [2] = experiment: MCF-7 TEAD1-luciferase reporter assay (MCF7-TEAD-Luc); details: MCF7 cells, overnight; for IC50: Homo sapiens; for TEAD1-Luc MCF7: Max Inhibition: % of DMSO-treated control
Summary of the method: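 MCF7 cells with a TEAD luciferase reporter were seeded at 10,000 per well, grown 24 hours at 37° C, then treated overnight with serially diluted compound. Luciferase signal was normalized as % inhibition relative to DMSO controls, and IC50 came from a four-parameter fit.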

TEAD4 = TEAD4 (Homo sapiens, UniProt Q15561); experiment: Palmitoylation assay, TEAD4 (HEK293T cells); parameters: unspecified tag; expressed in transfected cells; host or cells: HEK293T; details: 3 um compound, 24 hours
TEAD4, sequence (Q15561 whole entry): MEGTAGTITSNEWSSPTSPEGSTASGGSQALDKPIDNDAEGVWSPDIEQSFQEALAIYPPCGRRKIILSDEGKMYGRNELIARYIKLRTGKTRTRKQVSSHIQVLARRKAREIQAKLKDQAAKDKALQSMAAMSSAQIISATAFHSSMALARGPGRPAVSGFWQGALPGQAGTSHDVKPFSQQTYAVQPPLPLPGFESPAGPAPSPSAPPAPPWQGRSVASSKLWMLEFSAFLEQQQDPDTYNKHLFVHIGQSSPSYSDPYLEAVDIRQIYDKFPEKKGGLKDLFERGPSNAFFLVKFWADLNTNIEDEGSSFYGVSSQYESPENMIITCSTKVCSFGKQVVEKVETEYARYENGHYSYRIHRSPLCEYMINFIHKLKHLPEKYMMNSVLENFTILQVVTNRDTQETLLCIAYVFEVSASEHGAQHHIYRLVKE
Procedure: (§3) Tagged TEAD constructs were cloned in pTriEx-6 (Novagen #71559) and transiently transfected into HEK293T cells for 24 hours. Then cells were treated with compounds for 24 hours, or treated with compounds plus 25 μM alkyne palmitic acid (for palmitoylation assay), and cell pellets were collected. Cells were lysed in lysis Buffer (100 mM Tris-HCl, 150 mM NaCl, 1% Triton, 5 mg/mL protease inhibitor cocktail), centrifuged for 10 min at 15000 g, TEAD proteins were pulled down and subjected to click-chemistry with TAMRA azide (Click Chemistry Tools #AZ109) to label compound-modified protein. Protein bands were separated by SDS-gel electrophoresis, target bands at expected molecular size were visualized using BioRad ChemiDoc Imaging system, band intensities were quantified by Image Studio.

TEAD2 = TEAD2 (Homo sapiens, UniProt Q15562); experiment: Palmitoylation assay, TEAD2 (HEK293T cells); parameters: unspecified tag; expressed in transfected cells; host or cells: HEK293T; details: 3 um compound, 24 hours
TEAD2, sequence (Q15562 whole entry): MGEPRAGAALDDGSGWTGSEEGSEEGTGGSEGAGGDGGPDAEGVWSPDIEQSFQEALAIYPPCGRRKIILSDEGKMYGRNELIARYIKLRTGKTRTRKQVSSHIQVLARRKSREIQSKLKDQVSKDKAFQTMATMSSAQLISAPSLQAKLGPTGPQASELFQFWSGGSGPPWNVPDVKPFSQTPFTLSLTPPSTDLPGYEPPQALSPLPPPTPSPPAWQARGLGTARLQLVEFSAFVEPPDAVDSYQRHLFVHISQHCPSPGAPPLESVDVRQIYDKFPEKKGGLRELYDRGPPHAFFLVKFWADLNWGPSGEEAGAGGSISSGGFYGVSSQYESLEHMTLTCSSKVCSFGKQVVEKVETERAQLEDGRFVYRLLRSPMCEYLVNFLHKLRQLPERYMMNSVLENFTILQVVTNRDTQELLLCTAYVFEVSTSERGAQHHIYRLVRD
Procedure: as §3

TEAD3 = TEAD3 (Homo sapiens, UniProt Q99594); experiment: Palmitoylation assay, TEAD3 (HEK293T cells); parameters: unspecified tag; expressed in transfected cells; host or cells: HEK293T; details: 3 um compound, 24 hours
TEAD3, sequence (Q99594 whole entry): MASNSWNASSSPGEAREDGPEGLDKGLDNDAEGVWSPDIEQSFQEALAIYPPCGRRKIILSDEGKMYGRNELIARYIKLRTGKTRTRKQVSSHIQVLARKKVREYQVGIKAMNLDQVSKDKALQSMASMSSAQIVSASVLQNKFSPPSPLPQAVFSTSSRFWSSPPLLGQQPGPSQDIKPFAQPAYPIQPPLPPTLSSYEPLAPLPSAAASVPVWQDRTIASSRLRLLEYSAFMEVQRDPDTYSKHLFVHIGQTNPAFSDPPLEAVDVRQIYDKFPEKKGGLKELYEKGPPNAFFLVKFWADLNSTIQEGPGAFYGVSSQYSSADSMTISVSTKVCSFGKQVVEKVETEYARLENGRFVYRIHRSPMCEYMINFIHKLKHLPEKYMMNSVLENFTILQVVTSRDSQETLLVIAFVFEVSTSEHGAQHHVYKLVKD
Procedure: as §3

TEAD1 [3] = experiment: Palmitoylation assay, TEAD1 (HEK293T cells); details: 3 um compound, 24 hours
Procedure: as §3

NCI-H226 cells [4] = experiment: Cell proliferation and viability assay (CPA) in NCI-H226 cells; details: up to 6 d
Procedure: as §1, §2

Row | SMILES | IC50 (NCI-H226 cells [1]) [nM] | IC50 (H2052 cells) [nM] | IC50 (TEAD1 [2]) [nM] | TEAD4 Inh (palmitoylation) (TEAD4) [%] | TEAD2 Inh (palmitoylation) (TEAD2) [%] | TEAD3 Inh (palmitoylation) (TEAD3) [%] | IC50 (NCI-H226 cells [4]; Homo sapiens, 144 h, read-out: CPA NCI-H226 IC50 Ave) [nM] | CPA NCI-H226 Max Inh Ave (NCI-H226 cells [1]) | CPA H2052 Max Inh Ave (H2052 cells) | TEAD1-Luc MCF7: Max Inhibition (TEAD1 [2]) | TEAD1 Inh (palmitoylation) (TEAD1 [3]) [%] | CPA NCI-H226 Max Inh Ave (NCI-H226 cells [4])
1 | C=CC(=O)N1CC[C@@](C)(C#Cc2ccc(C(F)(F)F)cc2)C1 (single isomer, unassigned) [Example 61, 1-[(3S*)-3-methyl-3-{2-[4-(trifluoromethyl)phenyl]ethynyl}pyrrolidin-1-yl]prop-2-en-1-one] | ≤ 100 | ≤ 100 | 10 to 100 | – | – | – | – | B (75% > B ≥ 50%) | A (A ≥ 75%) | A (A ≥ 75%) | – | –
2 | C=CC(=O)N1C[C@@H](C)[C@H](/C=C/c2ccc(C(F)(F)F)cc2)C1 (stereo in doubt) [Example 39, 1-((3S*,4S*)-3-methyl-4-((E)-4-(trifluoromethyl)styryl)pyrrolidin-1-yl)prop-2-en-1-one] | – | – | 10 to 100 | 18 | 32 | 90 | – | – | – | A (A ≥ 75%) | 89 | –
3 | C=CC(=O)N1CC[C@@H](/C=C/c2ccc(C(F)(F)F)cc2)C1 [Example 9] | – | 100 to 500 | 10 to 100 | – | – | – | – | – | – | – | – | –
4 | C=CC(=O)N1CC(/C=C\c2cnc(C(F)(F)F)s2)C1 [Example 12] | – | 100 to 500 | 10 to 100 | – | – | – | – | – | – | – | – | –
5 | C=CC(=O)N1CC(/C=C/c2cccc(C(F)(F)F)c2)C1 [Example 14] | – | 100 to 500 | 10 to 100 | – | – | – | – | – | B (75% > B ≥ 50%) | B (75% > B ≥ 50%) | – | –
6 | C=CC(=O)N1CC(C#N)(/C=C/c2cc(C(F)(F)F)on2)C1 [Example 34, 1-acryloyl-3-(2-(5-(trifluoromethyl)isoxazol-3-yl)vinyl)azetidine-3-carbonitrile] | 100 to 500 | ≤ 100 | 10 to 100 | – | – | – | – | A (A ≥ 75%) | A (A ≥ 75%) | A (A ≥ 75%) | – | –
7 | C=CC(=O)N1CC(/C=C/c2ccc(C(F)(F)F)cc2)C(OC)C1 (centres unmarked) [Example 36, 1-(3-methoxy-4-(4-(trifluoromethyl)styryl)pyrrolidin-1-yl)prop-2-en-1-one] | 100 to 500 | ≤ 100 | 10 to 100 | – | – | – | – | B (75% > B ≥ 50%) | B (75% > B ≥ 50%) | A (A ≥ 75%) | – | –
8 | C#Cc1cc(/C=C/C2CN(C(=O)C=C)C2)ccc1C(F)(F)F [Example 45, (E)-1-(3-(3-ethynyl-4-(trifluoromethyl)styryl)azetidin-1-yl)prop-2-en-1-one] | 100 to 500 | 100 to 500 | 10 to 100 | – | – | – | – | B (75% > B ≥ 50%) | B (75% > B ≥ 50%) | A (A ≥ 75%) | – | –
9 | C=CC(=O)N1CCC2(CC(/C=C/c3ccc(C(F)(F)F)cc3)C2)C1 (centres unmarked) [Example 106, (E)-1-(2-(4-(trifluoromethyl)styryl)-6-azaspiro[3.4]octan-6-yl)prop-2-en-1-one] | – | – | 10 to 100 | – | – | – | – | – | – | B (75% > B ≥ 50%) | – | –

More lines, main results first:

Row | IC50 (NCI-H226 cells [1]) [nM] | IC50 (H2052 cells) [nM] | IC50 (TEAD1 [2]) [nM] | TEAD4 Inh (palmitoylation) (TEAD4) [%] | TEAD2 Inh (palmitoylation) (TEAD2) [%] | TEAD3 Inh (palmitoylation) (TEAD3) [%] | IC50 (NCI-H226 cells [4]; Homo sapiens, 144 h, read-out: CPA NCI-H226 IC50 Ave) [nM] | SMILES | CPA NCI-H226 Max Inh Ave (NCI-H226 cells [1]) | CPA H2052 Max Inh Ave (H2052 cells) | TEAD1-Luc MCF7: Max Inhibition (TEAD1 [2]) | TEAD1 Inh (palmitoylation) (TEAD1 [3]) [%] | CPA NCI-H226 Max Inh Ave (NCI-H226 cells [4])
10 | ≤ 100 | 100 to 500 | 10 to 100 | – | – | – | – | C=CC(=O)N1CC[C@](C#Cc2ccc(C(F)(F)F)cc2)(OC)C1 (single isomer, unassigned) [Example 59, (R*)-1-(3-methoxy-3-((4-(trifluoromethyl)phenyl)ethynyl)pyrrolidin-1-yl)prop-2-en-1-one] | A (A ≥ 75%) | B (75% > B ≥ 50%) | A (A ≥ 75%) | – | –
11 | ≤ 100 | ≤ 100 | 10 to 100 | – | – | – | – | C=CC(=O)N1CC[C@](C)(C#Cc2ccc(C(F)(F)F)cc2)C1 (single isomer, unassigned) [Example 60, 1-[(3R*)-3-methyl-3-{2-[4-(trifluoromethyl)phenyl]ethynyl}pyrrolidin-1-yl]prop-2-en-1-one] | A (A ≥ 75%) | A (A ≥ 75%) | A (A ≥ 75%) | – | –
12 | ≤ 100 | ≤ 100 | ≤ 10 | – | – | – | – | C=CC(=O)N1CC[C@@H](C#Cc2ccc(C(F)(F)F)cc2)C1 (single isomer, unassigned) [Example 67, (S*)-1-(3-((4-(trifluoromethyl)phenyl)ethynyl)pyrrolidin-1-yl)prop-2-en-1-one] | A (A ≥ 75%) | A (A ≥ 75%) | A (A ≥ 75%) | – | –
13 | 100 to 500 | ≤ 100 | ≤ 10 | – | – | – | – | C=CC(=O)N1CC(C/C=C\c2cc(C(F)(F)F)on2)C1 [Example 1, 1-{3-[(2Z)-3-[5-(trifluoromethyl)-1,2-oxazol-3-yl]prop-2-en-1-yl]azetidin-1-yl}prop-2-en-1-one] | B (75% > B ≥ 50%) | B (75% > B ≥ 50%) | A (A ≥ 75%) | – | –
14 | 100 to 500 | ≤ 100 | ≤ 10 | – | – | – | – | C=CC(=O)N1CC(/C=C/c2ccc(C(F)(F)F)cn2)C1 [Example 11, 1-(3-(2-(5-(trifluoromethyl)pyridin-2-yl)vinyl)azetidin-1-yl)prop-2-en-1-one] | A (A ≥ 75%) | A (A ≥ 75%) | A (A ≥ 75%) | – | –
15 | ≤ 100 | ≤ 100 | ≤ 10 | – | – | – | – | C=CC(=O)N1CC(/C=C/c2cnc(C(F)(F)F)s2)C1 [Example 13, 1-{3-[(E)-2-[2-(trifluoromethyl)-1,3-thiazol-5-yl]ethenyl]azetidin-1-yl}prop-2-en-1-one] | B (75% > B ≥ 50%) | B (75% > B ≥ 50%) | A (A ≥ 75%) | – | –
16 | 100 to 500 | ≤ 100 | ≤ 10 | 33 | 70 | 96 | – | C=CC(=O)N1CC(/C=C/c2cc(C(F)(F)F)on2)C1 [Example 21, (E)-1-(3-(2-(5-(trifluoromethyl)isoxazol-3-yl)vinyl)azetidin-1-yl)prop-2-en-1-one] | A (A ≥ 75%) | B (75% > B ≥ 50%) | A (A ≥ 75%) | 96 | –
17 | – | ≤ 100 | ≤ 10 | – | – | – | 100 to 500 | C=CC(=O)N1CC[C@H](C/C=C/c2ccc(C(F)(F)F)cc2)C1 [Example 85] | – | B (75% > B ≥ 50%) | A (A ≥ 75%) | – | B (75% > B ≥ 50%)
